This note sets out measurements from patent US9255094B2, “Pyrido[4,3-B]indoles and methods of use” (Medivation Technologies, Inc., priority 2009, dated 2016).

Assay [1] has as its target T1, human recombinant serotonin (5-Hydroxytryptamine) 5-HT2C receptor (Homo sapiens, UniProt P28335).
T1 construct: expressed in transfected cells; host or cells: Chinese hamster ovary (CHO-K1) cells
T1 sequence (P28335 33-458): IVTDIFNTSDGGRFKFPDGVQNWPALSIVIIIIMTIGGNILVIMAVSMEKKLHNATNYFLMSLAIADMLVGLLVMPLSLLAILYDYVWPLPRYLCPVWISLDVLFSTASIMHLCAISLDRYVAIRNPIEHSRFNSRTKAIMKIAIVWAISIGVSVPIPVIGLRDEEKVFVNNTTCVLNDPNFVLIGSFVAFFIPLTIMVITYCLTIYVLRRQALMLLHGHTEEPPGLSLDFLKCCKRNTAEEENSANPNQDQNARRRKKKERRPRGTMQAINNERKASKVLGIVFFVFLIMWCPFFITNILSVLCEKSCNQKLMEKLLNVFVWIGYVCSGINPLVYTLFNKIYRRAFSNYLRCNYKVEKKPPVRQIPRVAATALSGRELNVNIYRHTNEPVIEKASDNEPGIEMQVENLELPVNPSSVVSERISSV
In words: Serotonin 5-HT2C radioligand binding assay ([3H]Mesulergine). To be noted: 1 nM [3H]Mesulergine, CHO-K1 cells; for inhibition at 1 µM: compound at 1 μM, read-out: Percent Inhibition of ligand binding, Serotonin (1 μM) 5-HT2C; for inhibition at 0.1 µM: compound at 0.1 μM, read-out: Percent Inhibition of ligand binding, Serotonin (0.1 μM) 5-HT2C. As for the experimental part:
Compounds of the invention were incubated with 1 nM [^3H]Mesulergine for 60 min at 25° C. Non-specific binding was estimated in the presence of 1 μM Mianserin. Receptor proteins were filtered and washed, the filters were then counted to determine [^3H]Mesulergine specifically bound. Compounds were screened at 1 μM or lower, using 1% DMSO as vehicle. Biochemical assay results are presented as the percent inhibition of specific binding in Table 4.

Assay [2] addresses human recombinant serotonin (5-Hydroxytryptamine) 5-HT7 receptor (Homo sapiens, UniProt P34969). In words: Serotonin 5-HT7 radioligand binding assay ([3H]LSD). The settings on record: 5.5 nM [3H]LSD, CHO cells; for inhibition at 1 µM: compound at 1 μM, read-out: Percent Inhibition of ligand binding, Serotonin (1 μM) 5-HT7; for inhibition at 0.1 µM: compound at 0.1 μM, read-out: Percent Inhibition of ligand binding, Serotonin (0.1 μM) 5-HT7. The procedure:
Compounds of invention were incubated with 5.5 nM [^3H] Lysergic acid diethylamide (LSD) for 2 h at 25° C. […] Receptor proteins were filtered and washed, the filters were then counted to determine [^3H]LSD specifically bound. Compounds were screened at 1 μM or lower, using 1% DMSO as vehicle. Biochemical assay results are presented as the percent inhibition of specific binding in Table 4.

Assay [3] addresses T2, human recombinant adrenergic α2B receptor (Homo sapiens, UniProt P18089).
T2 construct: expressed in transfected cells; host or cells: Chinese hamster ovary (CHO-K1) cells
T2 sequence (P18089 1-450): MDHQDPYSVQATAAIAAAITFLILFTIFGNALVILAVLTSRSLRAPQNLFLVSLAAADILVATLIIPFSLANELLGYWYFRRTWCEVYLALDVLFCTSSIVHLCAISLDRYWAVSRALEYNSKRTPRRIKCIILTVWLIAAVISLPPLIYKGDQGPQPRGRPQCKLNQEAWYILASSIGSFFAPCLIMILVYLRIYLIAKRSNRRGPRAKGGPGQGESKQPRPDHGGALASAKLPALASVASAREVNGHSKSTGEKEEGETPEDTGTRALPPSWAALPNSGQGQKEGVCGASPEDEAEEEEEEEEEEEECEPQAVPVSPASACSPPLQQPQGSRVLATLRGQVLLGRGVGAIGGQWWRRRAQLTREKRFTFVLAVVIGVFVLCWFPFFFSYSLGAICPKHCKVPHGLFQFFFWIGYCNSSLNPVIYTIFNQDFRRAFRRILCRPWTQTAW
In words: Adrenergic α2B radioligand binding assay ([3H]Rauwolscine). To be noted: 2.5 nM [3H]Rauwolscine, CHO-K1 cells; for inhibition at 1 µM: compound at 1 μM, read-out: Percent Inhibition of ligand binding, Adrenergic (1 μM) a2B; for inhibition at 0.1 µM: compound at 0.1 μM, read-out: Percent Inhibition of ligand binding, Adrenergic (0.1 μM) a2B. The procedure: To evaluate in radioligand binding assays the activity of compounds of the invention, human recombinant adrenergic α2B receptor expressed in Chinese hamster ovary (CHO-K1) cells (Uhlen S et al., Eur. J. Pharmacol. 343(1):93, 1998) in a modified Tris-HCl buffer (50 mM Tris-HCl, pH 7.4, 12.5 mM MgCl2, 1 mM EDTA, 0.2% BSA) was used. Compounds of the invention were incubated with 2.5 nM [^3H]Rauwolscine for 60 min at 25° C. Non-specific binding was estimated in the presence of 10 μM Prozosin. Receptor proteins were filtered and washed, the filters were then counted to determine [^3H]Rauwolscine specifically bound.

In assay [4] the target is human recombinant histamine H1 receptor (Homo sapiens, UniProt P35367). The assay can be described thus: Histamine H1 radioligand binding assay ([3H]Pyrilamine). The settings on record: receptor expressed in CHO cells; for inhibition at 1 µM: compound at 1 μM; for inhibition at 0.1 µM: compound at 0.1 μM. The method, boiled down:
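Membranes from CHO cells expressing the receptor, in 50 mM Tris-HCl pH 7.4 with 2 mM MgCl2, 100 mM NaCl and 250 mM sucrose, incubated with 1.2 nM [3H]pyrilamine for 180 min at 25° C; nonspecific binding defined with 1 μM pyrilamine.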

Assay [5] addresses T3, human recombinant serotonin (5-Hydroxytryptamine) 5-HT6 receptor (Homo sapiens, UniProt P50406).
T3 construct: expressed in transfected cells; host or cells: human HeLa cells
The assay can be described thus: Serotonin 5-HT6 radioligand binding assay ([3H]LSD). The settings on record: HeLa cells; for inhibition at 1 µM: compound at 1 μM, read-out: Percent Inhibition of ligand binding, Serotonin (1 μM) 5-HT6; for inhibition at 0.1 µM: compound at 0.1 μM, read-out: Percent Inhibition of ligand binding, Serotonin (0.1 μM) 5-HT6. The procedure: Compounds of the invention were incubated with 1.5 nM [3H]Lysergic acid diethylamide (LSD) for 120 min at 37° C. […] Receptor proteins were filtered and washed, the filters were then counted to determine [3H]LSD specifically bound. Compounds were screened at 1 μM or lower, using 1% DMSO as vehicle. Biochemical assay results are presented as the percent inhibition of specific binding in Table 4.

For assay [6], the target named is human recombinant dopamine D2L receptor (Homo sapiens, UniProt P14416). The assay can be described thus: Dopamine D2L radioligand binding assay ([3H]Spiperone). To be noted: compound at 1 μM, 0.16 nM [3H]Spiperone, CHO cells, read-out: Percent Inhibition of ligand binding, Dopamine (1μM). The method, boiled down:
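Test compounds at 1 μM or lower (1% DMSO vehicle) incubated with 0.16 nM [3H]Spiperone for 120 min at 25 °C; nonspecific binding defined with 10 μM haloperidol. Filtration and counting of bound radioligand; values given as percent inhibition of specific binding.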

Sequence of human recombinant histamine H1 receptor (P35367 whole entry): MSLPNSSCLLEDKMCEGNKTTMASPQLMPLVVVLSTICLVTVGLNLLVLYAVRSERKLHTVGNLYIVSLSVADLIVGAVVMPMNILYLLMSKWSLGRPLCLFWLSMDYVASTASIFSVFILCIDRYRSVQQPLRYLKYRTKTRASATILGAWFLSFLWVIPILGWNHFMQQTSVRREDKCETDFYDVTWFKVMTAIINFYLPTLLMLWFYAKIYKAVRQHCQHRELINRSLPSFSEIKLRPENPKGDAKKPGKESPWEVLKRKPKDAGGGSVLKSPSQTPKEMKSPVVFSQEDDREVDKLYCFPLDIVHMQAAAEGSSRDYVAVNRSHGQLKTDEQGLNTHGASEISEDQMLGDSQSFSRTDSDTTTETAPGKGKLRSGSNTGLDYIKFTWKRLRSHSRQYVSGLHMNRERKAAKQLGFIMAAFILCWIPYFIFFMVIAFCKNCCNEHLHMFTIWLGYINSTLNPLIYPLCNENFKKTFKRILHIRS
Sequence of human recombinant dopamine D2L receptor (P14416 whole entry): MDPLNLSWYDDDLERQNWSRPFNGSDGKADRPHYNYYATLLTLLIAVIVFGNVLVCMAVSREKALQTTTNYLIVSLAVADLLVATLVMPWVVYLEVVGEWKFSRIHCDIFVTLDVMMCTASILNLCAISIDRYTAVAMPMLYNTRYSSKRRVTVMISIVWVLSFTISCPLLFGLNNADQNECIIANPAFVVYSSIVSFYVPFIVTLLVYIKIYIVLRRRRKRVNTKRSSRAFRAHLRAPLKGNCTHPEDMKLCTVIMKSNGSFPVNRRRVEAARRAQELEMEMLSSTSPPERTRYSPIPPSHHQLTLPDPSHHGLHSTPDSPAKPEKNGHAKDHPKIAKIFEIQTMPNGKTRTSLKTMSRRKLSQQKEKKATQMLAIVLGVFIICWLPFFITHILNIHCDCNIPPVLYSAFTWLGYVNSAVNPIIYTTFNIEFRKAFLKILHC
T3 sequence (P50406 whole entry): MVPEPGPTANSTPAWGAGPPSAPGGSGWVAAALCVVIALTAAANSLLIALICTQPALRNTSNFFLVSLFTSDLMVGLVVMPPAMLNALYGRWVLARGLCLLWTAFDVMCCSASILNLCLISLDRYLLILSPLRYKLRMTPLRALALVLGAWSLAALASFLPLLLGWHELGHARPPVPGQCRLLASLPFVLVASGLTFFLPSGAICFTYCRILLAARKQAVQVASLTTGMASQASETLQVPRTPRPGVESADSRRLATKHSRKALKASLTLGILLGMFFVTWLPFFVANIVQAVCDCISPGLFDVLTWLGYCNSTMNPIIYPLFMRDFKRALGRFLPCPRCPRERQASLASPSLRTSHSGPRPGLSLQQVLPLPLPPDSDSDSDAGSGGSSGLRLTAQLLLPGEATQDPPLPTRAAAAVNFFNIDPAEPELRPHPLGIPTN
Sequence of human recombinant serotonin (5-Hydroxytryptamine) 5-HT7 receptor (P34969 whole entry): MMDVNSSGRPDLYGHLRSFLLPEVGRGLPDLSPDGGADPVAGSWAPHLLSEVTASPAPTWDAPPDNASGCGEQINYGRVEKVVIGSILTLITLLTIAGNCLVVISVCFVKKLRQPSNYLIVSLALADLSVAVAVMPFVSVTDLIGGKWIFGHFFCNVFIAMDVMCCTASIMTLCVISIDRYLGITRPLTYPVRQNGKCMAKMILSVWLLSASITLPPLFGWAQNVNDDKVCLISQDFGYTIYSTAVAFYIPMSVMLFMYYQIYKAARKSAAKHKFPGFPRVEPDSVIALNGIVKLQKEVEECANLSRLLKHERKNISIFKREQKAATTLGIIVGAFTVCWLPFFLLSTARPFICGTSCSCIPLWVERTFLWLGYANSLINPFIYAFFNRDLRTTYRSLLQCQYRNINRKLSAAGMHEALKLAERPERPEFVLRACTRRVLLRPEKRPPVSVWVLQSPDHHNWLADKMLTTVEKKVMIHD

The inhibition is the change of the read-out against control, counted positive when it falls. On to `Cc1ccc2c(c1)c1c(n2CC(=O)c2ccc(F)cc2)CCN(C)C1` [Compound 1-39, 2-(2,8-dimethyl-3,4-dihydro-1H-pyrido[4,3-b]indol-5(2H)-yl)-1-(4-fluorophenyl)ethanone], for which the inhibition at 1 µM in assay [1] worked out at 104%; in assay [2], 95%; in assay [3], 92%; in assay [4] it was 86%; in assay [5] it was 62%; in assay [6] it was 57%.
For the compound `Cc1ccc2c(c1)c1c(n2CCc2ccc(C(F)(F)F)nc2)CCNC1` [Compound 1-41, 8-methyl-5-(2-(6-(trifluoromethyl)pyridin-3-yl)ethyl)-2,3,4,5-tetrahydro-1H-pyrido[4,3-b]indole], the inhibition at 1 µM in assay [1] is 41%; in assay [2] it was 59%; in assay [3], 89%; in assay [4], 72%; in assay [5] it was 14%; in assay [6], -8%.
For the compound `Cc1ccc2c(c1)c1c(n2CCc2ccc(C)nc2)CCN(CCCO)C1` [Compound 1-42, 3-(8-methyl-5-(2-(6-methylpyridin-3-yl)ethyl)-3,4-dihydro-1H-pyrido[4,3-b]indole-2(5H)-yl)propan-1-ol], the inhibition at 1 µM was 90% in assay [1]; 63% in assay [2]; 39% in assay [3]; 93% in assay [4]; 43% in assay [5]; 11% in assay [6].
With `CC[C@](O)(Cn1c2c(c3cc(C)ccc31)CN(C)CC2)c1ccc(F)cc1` [Compound 1-60, (R)-1-(2,8-Dimethyl-3,4-dihydro-1H-pyrido[4,3-b]indol-5(2H)-yl)-2-(4-fluorophenyl)butan-2-ol], the inhibition at 0.1 µM in assay [1] was found to be 67%; in assay [2], 16%; in assay [3], 1%; in assay [4], 10%; in assay [5] it was 48%. Also, the inhibition at 1 µM in assay [6] is -14%.
With `CCCC[C@](O)(Cn1c2c(c3cc(Cl)ccc31)CN(C)CC2)c1ccc(F)cc1` [Compound 1-61, (R)-1-(8-Chloro-2-methyl-3,4-dihydro-1H-pyrido[4,3-b]indol-5(2H)-yl)-2-(4-fluorophenyl)hexan-2-ol], the inhibition at 0.1 µM in assay [1] is 88%; in assay [2] it was -12%; in assay [3], 2%; in assay [4] it was -7%; in assay [5], 68%. Also, the inhibition at 1 µM in assay [6] amounted to 14%.
On to `CC[C@](O)(Cn1c2c(c3cc(C)ccc31)CN(C)CC2)c1ccncc1` [Compound 1-63, (R)-1-(2,8-Dimethyl-3,4-dihydro-1H-pyrido[4,3-b]indol-5(2H)-yl)-2-(pyridine-4-yl)butan-2-ol], for which the inhibition at 0.1 µM in assay [1] worked out at 25%; in assay [2], 25%; in assay [3], 47%; in assay [4], 18%; in assay [5], 25%. Besides, in assay [6], the inhibition at 1 µM came out at 14%.
On to `Cc1ccc2c(c1)c1c(n2CCc2ccc(C)nc2)CCN(CC(F)(F)F)C1` [Compound 1-65, 8-methyl-5-(2-(6-methylpyridin-3-yl)ethyl)-2-(2,2,2-trifluoroethyl)-2,3,4,5-tetrahydro-1H-pyrido[4,3-b]indole], for which the inhibition at 0.1 µM in assay [1] was 6%; in assay [2] it was -15%; in assay [3], -9%; in assay [4] it was 11%; in assay [5], -6%. The inhibition at 1 µM in assay [6] stood at 12%.
On to `CCCC[C@@](O)(Cn1c2c(c3cc(Cl)ccc31)CN(C)CC2)c1ccc(F)cc1` [Compound 1-67, (S)-1-(8-chloro-2-methyl-3,4-dihydro-1H-pyrido[4,3-b]indol-5(2H)-yl)-2-(4-fluorophenyl)hexan-2-ol], for which the inhibition at 0.1 µM was 51% in assay [1]; -8% in assay [2]; -3% in assay [3]; -2% in assay [4]; 25% in assay [5]. For the same compound, in assay [6], the inhibition at 1 µM was 20%.
